Test results published in paper PMC5046141, “Discovery of Isoquinolinoquinazolinones as a Novel Class of Potent PPARγ Antagonists with Anti-adipogenic Effects” (Scientific Reports, 2016).

Biological target: T1, R288G mutant PPARγ2 (Mus musculus, UniProt P37238, R316G)
T1 sequence (P37238 1-505 R316G): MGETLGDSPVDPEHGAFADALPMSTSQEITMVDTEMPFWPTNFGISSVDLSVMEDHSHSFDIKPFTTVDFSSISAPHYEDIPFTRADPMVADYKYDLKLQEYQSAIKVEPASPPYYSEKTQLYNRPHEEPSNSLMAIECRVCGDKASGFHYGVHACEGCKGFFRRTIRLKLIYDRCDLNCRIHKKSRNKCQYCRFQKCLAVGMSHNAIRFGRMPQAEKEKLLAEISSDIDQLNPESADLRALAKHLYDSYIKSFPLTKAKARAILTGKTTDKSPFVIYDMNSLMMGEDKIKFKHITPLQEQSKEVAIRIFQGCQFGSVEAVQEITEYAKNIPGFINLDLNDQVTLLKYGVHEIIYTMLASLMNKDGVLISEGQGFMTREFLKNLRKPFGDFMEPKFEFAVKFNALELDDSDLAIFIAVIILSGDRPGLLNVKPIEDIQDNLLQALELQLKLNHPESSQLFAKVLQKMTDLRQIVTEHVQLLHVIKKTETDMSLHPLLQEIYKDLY
T1 sequence (P28700 1-467 partner): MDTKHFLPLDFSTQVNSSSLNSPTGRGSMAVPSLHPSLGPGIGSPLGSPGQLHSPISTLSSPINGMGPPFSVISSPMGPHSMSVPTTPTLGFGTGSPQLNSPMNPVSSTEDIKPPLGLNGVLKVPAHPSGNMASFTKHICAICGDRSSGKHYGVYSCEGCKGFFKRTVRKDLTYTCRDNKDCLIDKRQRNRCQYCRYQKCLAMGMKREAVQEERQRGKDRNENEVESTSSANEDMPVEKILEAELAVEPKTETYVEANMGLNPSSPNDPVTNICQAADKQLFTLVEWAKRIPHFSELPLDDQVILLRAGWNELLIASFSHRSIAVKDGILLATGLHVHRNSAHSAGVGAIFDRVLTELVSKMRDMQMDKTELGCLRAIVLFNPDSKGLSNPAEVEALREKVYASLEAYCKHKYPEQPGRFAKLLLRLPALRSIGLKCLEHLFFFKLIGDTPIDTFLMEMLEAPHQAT
Experiment: PPRE-Luc reporter assay with R288G mutant PPARγ2 in 3T3-L1 cells
Conditions: 5 μM, 12 h

COc1cc2cc3n(c(=O)c2cc1OC)CNc1cc(Cl)ccc1-3 [Compound 8o, 3-Chloro-10,11-dimethoxy-5H-isoquinolino[2,3-c]quinazolin-8(6H)-one]
effect of Arg288 to Gly substitution on the compound's inhibition of PPARγ2 activity: abolished the inhibitory effect
